Test systems include ACHN renal; SF-268 CNS; MALME-3M melanoma; UO-31 renal; SK-MEL-28 melanoma; RXF 393 renal; SN12C renal; NCI-H226 lung; KM12 colon; HCT-116 colon.
Common to all, as to experiment: NCI-60 cell line screen, 48 h

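Method: 48-hour compound exposure of cells in 96-well plates, five concentrations, linear interpolation of endpoints. GI50 is the concentration that inhibits growth by half. TGI denotes the concentration required for complete inhibition of growth.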

Take `NC(=S)c1cccc(C2Nc3ccccc3O2)c1` (stereo not given): the TGI in the experiment with ACHN renal, with SF-268 CNS, with MALME-3M melanoma, with UO-31 renal, with SK-MEL-28 melanoma and with RXF 393 renal was over 100 µM throughout. In addition, the TGI with SN12C renal is 12.1 µM; in the experiment with NCI-H226 lung, over 100 µM; in the experiment with KM12 colon, over 100 µM; in the experiment on HCT-116 colon, over 100 µM.

As to `COc1c(OC2OC(C)C(O)C(O)C2O)c(OC)c2oc(-c3ccc(O)cc3)cc(=O)c2c1O` (stereo not given), the GI50 is 30.7 µM in the experiment with ACHN renal; 33.1 µM with SF-268 CNS; 34.2 µM in the experiment with MALME-3M melanoma; 22.8 µM with UO-31 renal; 35.4 µM with SK-MEL-28 melanoma; 23.8 µM with RXF 393 renal. Further, the GI50 with SN12C renal was 27.8 µM; in the experiment on NCI-H226 lung, 30.6 µM; with KM12 colon it was 39.7 µM; in the experiment on HCT-116 colon, 32.4 µM. Besides, the TGI with ACHN renal is over 100 µM; with SF-268 CNS, over 100 µM; in the experiment on MALME-3M melanoma, over 100 µM; in the experiment with UO-31 renal it was over 100 µM; in the experiment on SK-MEL-28 melanoma it was over 100 µM; in the experiment with RXF 393 renal, 66.5 µM. For the same compound, the TGI with SN12C renal, in the experiment with NCI-H226 lung, in the experiment with KM12 colon and with HCT-116 colon was over 100 µM throughout.

For the compound `N#C/C(=C/C=C/c1cccc(Cl)c1)S(=O)c1ccccc1` (stereo not given), the GI50 with ACHN renal is 0.34 µM; with SF-268 CNS, 0.391 µM; with MALME-3M melanoma, 1.05 µM; in the experiment with UO-31 renal it was 0.358 µM; with SK-MEL-28 melanoma it was 1.23 µM; with RXF 393 renal, 0.233 µM. Also, the GI50 with SN12C renal is 0.359 µM; in the experiment on NCI-H226 lung, 1.14 µM; with KM12 colon, 0.321 µM; in the experiment with HCT-116 colon it was 0.241 µM. For the same compound, the TGI in the experiment on ACHN renal is 1.29 µM; in the experiment with SF-268 CNS, 2.14 µM; in the experiment with MALME-3M melanoma, 2.69 µM; in the experiment with UO-31 renal it was 1.71 µM; in the experiment on SK-MEL-28 melanoma, 2.68 µM; in the experiment on RXF 393 renal, 0.568 µM. The TGI in the experiment with SN12C renal is 1.42 µM; in the experiment on NCI-H226 lung, 3.68 µM; in the experiment with KM12 colon, 1.38 µM; in the experiment on HCT-116 colon, 0.642 µM.

In the case of `O=C(Cc1nc2ccccc2s1)C(=O)Nc1cccc(C(F)(F)F)c1`, the TGI in the experiment with ACHN renal, in the experiment with SF-268 CNS, in the experiment on MALME-3M melanoma, in the experiment on UO-31 renal, in the experiment with SK-MEL-28 melanoma and in the experiment with RXF 393 renal was over 100 µM in each case. The TGI in the experiment with SN12C renal, in the experiment on NCI-H226 lung, in the experiment with KM12 colon and in the experiment on HCT-116 colon was over 100 µM in each case.

In the case of `CCOC(=N)CC(=O)Nc1ccccc1CC`, the TGI with ACHN renal, in the experiment on SF-268 CNS, in the experiment with MALME-3M melanoma, with UO-31 renal, in the experiment on SK-MEL-28 melanoma and in the experiment on RXF 393 renal was over 100 µM each time. Besides, the TGI in the experiment on SN12C renal, with NCI-H226 lung, in the experiment with KM12 colon and with HCT-116 colon was over 100 µM throughout.

In the case of `CN(CCOc1ccc(NS(C)(=O)=O)cc1)CCc1ccc(NS(C)(=O)=O)cc1`, the GI50 with ACHN renal, in the experiment with SF-268 CNS, in the experiment with MALME-3M melanoma, in the experiment with UO-31 renal, with SK-MEL-28 melanoma and in the experiment with RXF 393 renal was over 100 µM throughout. Moreover, the GI50 in the experiment on SN12C renal, with NCI-H226 lung, with KM12 colon and with HCT-116 colon was over 100 µM each time. Besides, the TGI in the experiment with ACHN renal, in the experiment with SF-268 CNS, in the experiment on MALME-3M melanoma, in the experiment with UO-31 renal, in the experiment on SK-MEL-28 melanoma and in the experiment on RXF 393 renal was over 100 µM each time. The TGI in the experiment on SN12C renal, in the experiment with NCI-H226 lung, in the experiment with KM12 colon and in the experiment with HCT-116 colon was over 100 µM in each case.

`COC(=O)CCC(NC(=S)N/N=C(\C)c1cccs1)C(=O)OC` (stereo not given): the TGI with ACHN renal, in the experiment with SF-268 CNS, in the experiment on MALME-3M melanoma, in the experiment on UO-31 renal, with SK-MEL-28 melanoma and in the experiment on RXF 393 renal was over 100 µM throughout. For the same compound, the TGI in the experiment with SN12C renal, in the experiment with NCI-H226 lung, in the experiment on KM12 colon and with HCT-116 colon was over 100 µM throughout.

For `O=S1(=O)CCC2=CC(C(F)(F)F)=CC(C(F)(F)F)=CN21`, the TGI with ACHN renal turned out to be 1.11 µM; in the experiment with SF-268 CNS it was 4.68 µM; with MALME-3M melanoma, 2.26 µM; with UO-31 renal it was 2.05 µM; in the experiment on SK-MEL-28 melanoma it was 4.54 µM; in the experiment with RXF 393 renal it was 6.01 µM. The TGI was determined as 3.38 µM in the experiment on SN12C renal, 5.58 µM in the experiment on NCI-H226 lung, 3.54 µM with KM12 colon and 0.712 µM with HCT-116 colon.

Take `Cc1nc(C(=O)OCc2ccccc2)cc(OCc2ccccc2)c1C`: the GI50 was 20.9 µM in the experiment on ACHN renal; 17.5 µM in the experiment on SF-268 CNS; 24.4 µM in the experiment on MALME-3M melanoma; 18.3 µM in the experiment on UO-31 renal; 15.5 µM with SK-MEL-28 melanoma; 13.5 µM with RXF 393 renal. Also, the GI50 in the experiment on SN12C renal was 17.5 µM; in the experiment on NCI-H226 lung it was 19.1 µM; in the experiment on KM12 colon, 29 µM; in the experiment on HCT-116 colon it was 13.6 µM. For the same compound, the TGI in the experiment with ACHN renal worked out at 60.2 µM; in the experiment on SF-268 CNS it was 41.6 µM; with MALME-3M melanoma, 52.1 µM; with UO-31 renal, 39 µM; with SK-MEL-28 melanoma it was 29.8 µM; in the experiment on RXF 393 renal, 28 µM. Moreover, the TGI with SN12C renal was 35.4 µM; in the experiment on NCI-H226 lung, 46.9 µM; in the experiment on KM12 colon it was over 87.6 µM; in the experiment with HCT-116 colon, 32.6 µM.

For `O=C(C#Cc1ccccc1)NC/C=C/c1ccccc1`, the TGI in the experiment on ACHN renal was over 100 µM; in the experiment with SF-268 CNS, over 100 µM; with MALME-3M melanoma, over 100 µM; in the experiment with UO-31 renal, over 100 µM; with SK-MEL-28 melanoma, over 100 µM; in the experiment on RXF 393 renal, 37 µM. The TGI in the experiment on SN12C renal was over 100 µM; in the experiment on NCI-H226 lung, 93.8 µM; in the experiment with KM12 colon, over 100 µM; with HCT-116 colon it was over 100 µM.

With `O=C1C(=O)N(c2cc(Cl)ccc2Cl)C(=O)C(=O)C1c1nc2ccccc2s1`, the TGI in the experiment with ACHN renal is over 100 µM; in the experiment with SF-268 CNS, over 100 µM; in the experiment on MALME-3M melanoma it was over 100 µM; in the experiment on UO-31 renal, 90.8 µM; in the experiment on SK-MEL-28 melanoma, over 100 µM; in the experiment with RXF 393 renal it was over 100 µM. Moreover, the TGI with SN12C renal, with NCI-H226 lung, with KM12 colon and in the experiment with HCT-116 colon was over 100 µM each time.

The values are drawn from PubChem BioAssay (NCI).
